According to patent US20230310438A1 (priority 2019, published 2023):
Entries after “also recorded” stand apart in the source; their conditions may differ.

Test system: whole blood of youth with OUD and healthy controls
Assay type: cell-based, human

Compound	induction of cytokines and chemokines such as IL-12p40, IL-6, CXCL8, CXCL10, CCL2 and TNF	Th-polarizing cytokine production
monophosphoryl lipid A [MPLA]	reduced; also recorded: impaired	
CCOCc1nc2c(N)nc3ccccc3c2n1CC(C)(C)O [Formula R848, resiquimod]		robust and balanced
